Several values for one entry are separate records, joined by “and”; a condition that tells them apart may be missing. Identical values can stand only once.
Experiments:
[1] = Effect on BP and respiration, I.V. in rat; assay type: in vivo; details: 30 μg, 100 μg, 300 μg and 1 mg I.V. in rat
[2] = tested on: CCl4 induced hepatic injury; test: Hepatoprotective potential against CCl4 induced hepatic injury in rodents (prophylactic); assay type: in vivo, Rodents (Albino rats, Wistar; Albino mice, Swiss); details: for % protection, GSH / % protection, LP / GSH (glutathione) / LP (lipid peroxidation): hepatic; for GSH (glutathione) / LP (lipid peroxidation) / ALP / Albumin / Bilirubin / GOT / GPT / TG: mean ± SE, six animals; for % protection, ALP / % protection, Albumin / % protection, Bilirubin / % protection, GOT / % protection, GPT / % protection, TG / ALP / Albumin / Bilirubin / GOT / GPT / TG: serum
Text: The compound has been bioevaluated for hepatoprotective/antihepatotoxic activity by using a comprehensive study design annexed herewith as Annexure-2. The parameters studied during the bioevaluation to establish the bioefficacy and optimum dose were preferred using the kits (Clonital, Italy and Accurex Biomedical Pvt. Ltd Thane). The list of the parameters is given in Annexure-2 appended herewith. The dose response graphs with respect to different parameters in comparison with the standard drug with silymarin and glycyrrhizin are given in Annexure-3 appended herewith.
Hepatoprotective activity (H) was calculated by the following equation: H=[1−(TC−V/VC−V)]×100
Where TC, VC, and V are drug+toxin, vehicle+toxin and vehicle treated groups of animals respectively.

isolated rat colon = test: Histamine, 5-HT and Acetylcholine induced contraction on the isolated rat colon
[3] = Acteoside only (per-se), serum and hepatic parameters without toxin; assay type: in vivo, Rodents; details: 5 mg/kg, mean ± SE, six animals

C[C@@H]1O[C@@H](O[C@@H]2[C@@H](O)[C@H](OCCc3ccc(O)c(O)c3)O[C@H](CO)[C@H]2OC(=O)/C=C/c2ccc(O)c(O)c2)[C@H](O)[C@H](O)[C@H]1O [Acteoside, β-(3′,4′-dihydroxyphenyl) ethyl —O-α-L-rhamnopyranosyl (1→3)-β-D-(4-O-caffeoyl)-glucopyranoside]
effect on BP [1]: O: There is no effect on BP and Respiration in the doses of 30 μg, 100 μg, 300 μg and 1 mg I.V. in rat as there is no change in base line. | effect on Respiration [1]: O: There is no effect on BP and Respiration in the doses of 30 μg, 100 μg, 300 μg and 1 mg I.V. in rat as there is no change in base line. | % protection, GSH ([2]; 0.625 mg/kg p.o. + CCl4): (27.86) % | % protection, LP ([2]; 0.625 mg/kg p.o. + CCl4): (43.53) % | GSH (glutathione) ([2]; 0.625 mg/kg p.o. + CCl4): 4.66 ± 0.28 μ mole GSH/g liver | LP (lipid peroxidation) ([2]; 0.625 mg/kg p.o. + CCl4): 61.08 ± 3.39 n mole MDA/g liver | % protection, ALP ([2]; 0.625 mg/kg p.o. + CCl4): (21.48) % | % protection, Albumin ([2]; 0.625 mg/kg p.o. + CCl4): (21.43) % | % protection, Bilirubin ([2]; 0.625 mg/kg p.o. + CCl4): (12.24) % | % protection, GOT ([2]; 0.625 mg/kg p.o. + CCl4): (36.64) % | % protection, GPT ([2]; 0.625 mg/kg p.o. + CCl4): (39.44) % | % protection, TG ([2]; 0.625 mg/kg p.o. + CCl4): (17.63) % | ALP ([2]; 0.625 mg/kg p.o. + CCl4): 66.80 ± 3.53 μ mole of p-nitrophenol formed/min/L | Albumin ([2]; 0.625 mg/kg p.o. + CCl4): 3.06 ± 0.07 g % | Bilirubin ([2]; 0.625 mg/kg p.o. + CCl4): 0.70 ± 0.03 mg % | GOT ([2]; 0.625 mg/kg p.o. + CCl4): 673.82 ± 56.28 Units (μ mole pyruvate/min/L) | GPT ([2]; 0.625 mg/kg p.o. + CCl4): 852.27 ± 47.93 Units (μ mole pyruvate/min/L) | TG ([2]; 0.625 mg/kg p.o. + CCl4): 80.15 ± 3.53 mg % | overall percent protection with reference to all the parameters studied ([2]; 1.25 mg upto 5 mg/kg, CCl4): 40-85% and 40-80% | % protection, GSH ([2]; 1.25 mg/kg p.o. + CCl4): (52.96) % | % protection, LP ([2]; 1.25 mg/kg p.o. + CCl4): (59.38) % | GSH (glutathione) ([2]; 1.25 mg/kg p.o. + CCl4): 5.93 ± 0.32 μ mole GSH/g liver | LP (lipid peroxidation) ([2]; 1.25 mg/kg p.o. + CCl4): 52.61 ± 2.25 n mole MDA/g liver | % protection, ALP ([2]; 1.25 mg/kg p.o. + CCl4): (38.72) % | % protection, Albumin ([2]; 1.25 mg/kg p.o. + CCl4): (35.00) % | % protection, Bilirubin ([2]; 1.25 mg/kg p.o. + CCl4): (34.69) % | % protection, GOT ([2]; 1.25 mg/kg p.o. + CCl4): (55.43) % | % protection, GPT ([2]; 1.25 mg/kg p.o. + CCl4): (51.01) % | % protection, TG ([2]; 1.25 mg/kg p.o. + CCl4): (27.13) % | ALP ([2]; 1.25 mg/kg p.o. + CCl4): 59.10 ± 3.09 μ mole of p-nitrophenol formed/min/L | Albumin ([2]; 1.25 mg/kg p.o. + CCl4): 3.25 ± 0.14 g % | Bilirubin ([2]; 1.25 mg/kg p.o. + CCl4): 0.59 ± 0.03 mg % | GOT ([2]; 1.25 mg/kg p.o. + CCl4): 503.42 ± 48.95 Units (μ mole pyruvate/min/L) | GPT ([2]; 1.25 mg/kg p.o. + CCl4): 787.56 ± 57.49 Units (μ mole pyruvate/min/L) | TG ([2]; 1.25 mg/kg p.o. + CCl4): 74.38 ± 3.78 mg % | % protection, GSH ([2]; 2.5 mg/kg p.o. + CCl4): (68.57) % | % protection, LP ([2]; 2.5 mg/kg p.o. + CCl4): (72.76) % | GSH (glutathione) ([2]; 2.5 mg/kg p.o. + CCl4): 6.72 ± 0.28 μ mole GSH/g liver | LP (lipid peroxidation) ([2]; 2.5 mg/kg p.o. + CCl4): 45.46 ± 2.79 n mole MDA/g liver | % protection, ALP ([2]; 2.5 mg/kg p.o. + CCl4): (56.40) % | % protection, Albumin ([2]; 2.5 mg/kg p.o. + CCl4): (56.43) % | % protection, Bilirubin ([2]; 2.5 mg/kg p.o. + CCl4): (53.06) % | % protection, GOT ([2]; 2.5 mg/kg p.o. + CCl4): (58.92) % | % protection, GPT ([2]; 2.5 mg/kg p.o. + CCl4): (59.79) % | % protection, TG ([2]; 2.5 mg/kg p.o. + CCl4): (51.06) % | ALP ([2]; 2.5 mg/kg p.o. + CCl4): 51.20 ± 1.42 μ mole of p-nitrophenol formed/min/L | Albumin ([2]; 2.5 mg/kg p.o. + CCl4): 3.55 ± 0.22 g % | Bilirubin ([2]; 2.5 mg/kg p.o. + CCl4): 0.50 ± 0.03 mg % | GOT ([2]; 2.5 mg/kg p.o. + CCl4): 471.81 ± 26.40 Units (μ mole pyruvate/min/L) | GPT ([2]; 2.5 mg/kg p.o. + CCl4): 662.62 ± 39.80 Units (μ mole pyruvate/min/L) | TG ([2]; 2.5 mg/kg p.o. + CCl4): 59.85 ± 1.88 mg % | % protection, GSH ([2]; 5.0 mg/kg p.o. + CCl4): (74.50) % | % protection, LP ([2]; 5.0 mg/kg p.o. + CCl4): (75.07) % | GSH (glutathione) ([2]; 5.0 mg/kg p.o. + CCl4): 7.02 ± 0.46 μ mole GSH/g liver | LP (lipid peroxidation) ([2]; 5.0 mg/kg p.o. + CCl4): 44.22 ± 1.66 n mole MDA/g liver | % protection, ALP ([2]; 5.0 mg/kg p.o. + CCl4): (67.21) % | % protection, Albumin ([2]; 5.0 mg/kg p.o. + CCl4): (82.14) % | % protection, Bilirubin ([2]; 5.0 mg/kg p.o. + CCl4): (69.38) % | % protection, GOT ([2]; 5.0 mg/kg p.o. + CCl4): (70.49) % | % protection, GPT ([2]; 5.0 mg/kg p.o. + CCl4): (66.08) % | % protection, TG ([2]; 5.0 mg/kg p.o. + CCl4): (68.42) % | ALP ([2]; 5.0 mg/kg p.o. + CCl4): 46.37 ± 1.89 μ mole of p-nitrophenol formed/min/L | Albumin ([2]; 5.0 mg/kg p.o. + CCl4): 3.91 ± 0.12 g % | Bilirubin ([2]; 5.0 mg/kg p.o. + CCl4): 0.42 ± 0.02 mg % | GOT ([2]; 5.0 mg/kg p.o. + CCl4): 366.89 ± 26.97 Units (μ mole pyruvate/min/L) | GPT ([2]; 5.0 mg/kg p.o. + CCl4): 573.10 ± 28.25 Units (μ mole pyruvate/min/L) | TG ([2]; 5.0 mg/kg p.o. + CCl4): 49.31 ± 1.47 mg % | overall protection compared with silymarin ([2]; silymarin at 10-20 times the dosage of acteoside): better than that rendered by silymarin | effect on 5-HT induced contraction (isolated rat colon): O: There is no change in the base line against the Histamine, 5-HT and Acetylcholine induced contraction on the isolated rat colon. | effect on Acetylcholine induced contraction (isolated rat colon): O: There is no change in the base line against the Histamine, 5-HT and Acetylcholine induced contraction on the isolated rat colon. | effect on Histamine induced contraction (isolated rat colon): O: There is no change in the base line against the Histamine, 5-HT and Acetylcholine induced contraction on the isolated rat colon. | GSH (glutathione) ([3]; no CCl4, hepatic): 8.33 ± 0.33 μ mole GSH/g liver | LP (lipid peroxidation) ([3]; no CCl4, hepatic): 30.52 ± 1.38 n mole MDA/g liver | ALP ([3]; no CCl4, serum): 31.87 ± 2.15 μ mole of p-nitrophenol formed/min/L | Albumin ([3]; no CCl4, serum): 4.66 ± 0.18 g % | Bilirubin ([3]; no CCl4, serum): 0.27 ± 0.02 mg % | GOT ([3]; no CCl4, serum): 94.71 ± 5.29 Units (μ mole pyruvate/min/L) | GPT ([3]; no CCl4, serum): 98.91 ± 5.30 Units (μ mole pyruvate/min/L) | TG ([3]; no CCl4, serum): 31.10 ± 2.39 mg %

CC1(C)[C@@H](O[C@H]2O[C@H](C(=O)O)[C@@H](O)[C@H](O)[C@H]2O[C@@H]2O[C@H](C(=O)O)[C@@H](O)[C@H](O)[C@H]2O)CC[C@]2(C)[C@H]3C(=O)C=C4[C@@H]5C[C@@](C)(C(=O)O)CC[C@]5(C)CC[C@@]4(C)[C@]3(C)CC[C@@H]12 [Glycyrrhizin, reference compound]
% protection, GSH ([2]; 100 mg/kg p.o. + CCl4): (53.55) % | % protection, LP ([2]; 100 mg/kg p.o. + CCl4): (56.08) % | GSH (glutathione) ([2]; 100 mg/kg p.o. + CCl4): 5.96 ± 0.26 μ mole GSH/g liver | LP (lipid peroxidation) ([2]; 100 mg/kg p.o. + CCl4): 54.37 ± 4.82 n mole MDA/g liver | % protection, ALP ([2]; 100 mg/kg p.o. + CCl4): (46.48) % | % protection, Albumin ([2]; 100 mg/kg p.o. + CCl4): (38.57) % | % protection, Bilirubin ([2]; 100 mg/kg p.o. + CCl4): (42.85) % | % protection, GOT ([2]; 100 mg/kg p.o. + CCl4): (56.44) % | % protection, GPT ([2]; 100 mg/kg p.o. + CCl4): (53.87) % | % protection, TG ([2]; 100 mg/kg p.o. + CCl4): (42.07) % | ALP ([2]; 100 mg/kg p.o. + CCl4): 55.63 ± 3.52 μ mole of p-nitrophenol formed/min/L | Albumin ([2]; 100 mg/kg p.o. + CCl4): 3.30 ± 0.12 g % | Bilirubin ([2]; 100 mg/kg p.o. + CCl4): 0.55 ± 0.04 mg % | GOT ([2]; 100 mg/kg p.o. + CCl4): 494.27 ± 36.28 Units (μ mole pyruvate/min/L) | GPT ([2]; 100 mg/kg p.o. + CCl4): 746.87 ± 49.77 Units (μ mole pyruvate/min/L) | TG ([2]; 100 mg/kg p.o. + CCl4): 65.31 ± 3.69 mg %

Source: patent publication US6989162B2, “Hepatoprotective agent of plant origin and a process thereof” (Council of Scientific & Industrial Research, priority 2003, dated 2006)
